# Experimental data published in patent EP0586960B1, “Xanthone derivatives, their preparation and use” (INVERNI DELLA BEFFA S.P.A., priority 1992, dated 1994).
# Where two headings read alike, the source gives them in different places.
# What was measured:
# [1] = Acute toxicity in the rat after oral and intraperitoneal administration; parameters: species or system Sprague-Dawley rats; conditions: in vivo, 14 days observation, read-out: LD₅₀
# Experimental: The acute toxicity of the compound I (R = iPr; R₁ = OiPr) was evaluated in the rat after oral and intraperitoneal administration.
# Sprague-Dawley rats of both sexes (5M + 5F) were used for each group. […] The compound has an LD₅₀ > 4000 mg/kg (LD₀) after oral administration and an LD₅₀ > 1000 mg/kg (LD₂₀) by intraperitoneal route.
# [2] = tested on: suckling rats under hypocalcic diet; experiment: Antiosteoporotic activity in suckling rats under hypocalcic diet (femur compacta thickness by microradiography); assay type: in vivo, Wistar rats; conditions: 250 mg/kg/os
# Experimental: In vivo, the antiosteoporotic activity of the compound I (R = iPr, R₁ = OiPr) administered by the oral route, was evaluated on suckling rats under hypocalcic diet according to the method, slightly modified, disclosed by Lozupone et al., Bone, 9; 215, 1988). Female Wistar rats were allowed to delivery spontaneously.
# The offsprings were pooled, weighed and re-distributed so as to obtain nests similar in weight and number.
# The mothers during the suckling period were fed with an hypocalcic diet (Altromin DP 1031) and divided in two groups.
# One group was treated orally with compound I (R = iPr, R₁ = OiPr) suspended in Methocel 0.5% at the dose of 250 mg/kg, whereas the second was treated with the vehicle alone (control group). The animals were sacrificed after 10 days from the start of milking.
# The femur was taken from each animal and fixed, included in methacrylate and transversally cut. Two sections taken at the distal methaphysis and one from the medial methaphysis were microradiographed so as to measure the thickness of the compacta.
# hen osteoclasts = experiment: Bone resorption by hen osteoclast cultures with rat bone particles pre-labelled with tritiated proline; assay type: cell-based; conditions: for inhibition at 10 µg/mL / inhibition at 25 µg/mL: Osteoclast, read-out: Inhibition % vs. controls
# Experimental: The activity of the new xanthones has been evaluated in vitro and in vivo. The effect on the bone resorption has been studied in vitro according to Zambonin-Zallone et al. Anatomy Embriology, 165, 405, 1982). The medullary bone, deriving from tibia and femur of hens fed with hypocalcic diet for 7 days was washed with MEM buffer, modified according to Joklik, at 4°C and filtered through a nylon filter with pore diameters of 112 microns. The obtained cell suspension was centrifuged at 1800 rpm for 5 minutes. The surnatant was discarded and the pellet treated with a 0.2% NaCl solution for 30 seconds to eliminate most of the present red blood cells. After restoration of the physiological osmolarity by means of 1.6% NaCl, the sample was centrifuged at 1800 rpm for 5 min. The obtained pellet, suspended again in the culture medium, was layered on 75% foetal calf serum in Joklik MEM for 45 min, so as to obtain a cell suspension enriched in osteoclasts. The fibroblasts were then filtered off by means of two filtrations on 112 µn nylon filters.
# The so obtained cells were cultivated in a nucleotide-free medium, in the presence of 3 µg/ml of cytosine-1-D-β-arabinofuranoside to block the mitosis of proliferating cells. The culture medium contained 100 µg/ml streptomycin, 100 U.I./ml penicillin and 10% fetal calf serum. The cultures were incubated in humid atmosphere saturated with 5% CO₂ at 37°C and washed after 24 and 48 hours to remove non-adhering medullary cells.
# The bone resorption was evaluated using the so prepared osteoclasts cultures cultured in the presence of rat bone particles, pre-labelled in vivo with trititated proline. During the resorption process, the collagen was degraded into fragments containing tritiated proline which was released in the culture medium; the resorption was calculated by measuring the radioactivity present in the medium after 24 and 48 hours of treatment.
# Simultaneously to each experiment, cell-free samples have also been prepared containing only bone fragments labelled in the culture medium to measure the aspecific release of radioactivity from the bone. This value was subtracted as background from the corresponding experimental value.
# The compounds under examination were added to the culture medium at the concentrations of 10 and 25 µg/ml dissolved in DMSO. The inhibiting effect on the bone resorption of osteoclast of compound I (R = iPr, R₁ = OiPr), as an example, is reported on Table 1.
# The significance was evaluated by the Student's t test versus the group treated with the solvent alone (control).
# [3] = change versus control group (Methocel 0.5%)
# [4] = change versus control group (Methocel 0.5%); R₁ = OiPr)
# [5] = femur, sacrificed after 10 days, n = 3, p < 0.05
smiles,measurement,setting,value
"CC(C)Oc1ccc2c(=O)c3ccc(OC(C)C)cc3oc2c1 [I (R=iPr; R₁=OiPr), 3,6-Di(isopropoxy)xanthone]",LD50 at 336 h,"[1]; ip, intraperitoneal route, printed with (LD₂₀)",> 1000 mg/kg
same,LD50 at 336 h,"[1]; oral administration, printed with (LD₀)",> 4000 mg/kg
same,Compacta thinkness Diaphysis %,[2]; [3],+29%
same,Compacta thinkness Methaphysis %,[2]; [3],+29%
same,Compacta thinkness Diaphysis %,[2]; [4],29%
same,Compacta thinkness Methaphysis %,[2]; [4],29%
same,Compacta thinkness Diaphysis mm ± S.D.,[2]; [5],0.71±0.03 mm
same,Compacta thinkness Methaphysis mm ± S.D.,[2]; [5],0.40±0.12 mm
same,Bone Res.,"hen osteoclasts; Conc. 10 µg/ml, 24h, n = 4",32.1 ± 3.6 µg
same,Bone Res.,"hen osteoclasts; Conc. 10 µg/ml, 48h, n = 4",50.2 ± 6.3 µg
same,Bone Res.,"hen osteoclasts; Conc. 25 µg/ml, 24h, n = 4, p < 0.01",16.0 ± 1.0 µg
same,Bone Res.,"hen osteoclasts; Conc. 25 µg/ml, 48h, n = 4, p < 0.01",21.0 ± 1.0 µg
same,inhibition at 10 µg/mL,"hen osteoclasts; Conc. 10 µg/ml, 24h",27.5%
same,inhibition at 10 µg/mL,"hen osteoclasts; Conc. 10 µg/ml, 48h",30.9%
same,inhibition at 25 µg/mL,"hen osteoclasts; Conc. 25 µg/ml, 24h",63.8%
same,inhibition at 25 µg/mL,"hen osteoclasts; Conc. 25 µg/ml, 48h",71.1%
same,activity on bone resorption,hen osteoclasts; at the concentrations of 10 and 25 µg/ml,dose dependent activity
same,bone resorption inhibition in comparison to unexposed controls,"hen osteoclasts; both at 24 and at 48 hours, concentration not stated in the sentence (10 and 25 µg/ml tested)",higher than 60%
